Source: ChEMBL document CHEMBL1201862, “PubChem BioAssay data set” (2004)
Active and inactive are the calls of the source.

Columns and labels:
[1] = HeLa cell cytotoxicity, dose response, cytotoxicity control for MgcRacGAP inhibitor project (AID 624300); format: functional
[2] = biological target: T1, Rac GTPase-activating protein 1 (Homo sapiens, UniProt Q9H0H5); test: MgcRacGAP GTPase-activating activity inhibitors, confirmation, biochemical, ADP Hunter fluorescence, primary and confirmatory (AID 624330); format: functional
T1 sequence (Q9H0H5 whole entry): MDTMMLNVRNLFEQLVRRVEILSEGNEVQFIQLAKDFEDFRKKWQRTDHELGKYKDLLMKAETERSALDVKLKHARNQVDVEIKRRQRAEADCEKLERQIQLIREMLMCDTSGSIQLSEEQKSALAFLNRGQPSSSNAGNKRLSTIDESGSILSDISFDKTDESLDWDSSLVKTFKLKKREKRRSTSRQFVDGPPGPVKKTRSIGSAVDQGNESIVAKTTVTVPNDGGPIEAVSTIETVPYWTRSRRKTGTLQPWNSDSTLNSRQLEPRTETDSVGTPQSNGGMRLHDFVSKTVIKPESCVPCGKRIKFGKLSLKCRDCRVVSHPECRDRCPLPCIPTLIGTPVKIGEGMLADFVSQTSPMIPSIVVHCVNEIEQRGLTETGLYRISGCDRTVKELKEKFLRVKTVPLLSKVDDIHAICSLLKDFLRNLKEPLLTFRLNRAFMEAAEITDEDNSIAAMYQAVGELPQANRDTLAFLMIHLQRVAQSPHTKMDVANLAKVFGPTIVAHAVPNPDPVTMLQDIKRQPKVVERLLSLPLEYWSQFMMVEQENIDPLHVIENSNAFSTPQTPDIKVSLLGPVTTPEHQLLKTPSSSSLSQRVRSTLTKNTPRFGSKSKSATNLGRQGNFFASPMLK

[3] = biological target: T2, Microphthalmia-associated transcription factor (Homo sapiens, UniProt O75030); test: TRPM1 promoter luciferase signal decrease, dose response, MITF inhibitor project, cell-based, SK-MEL-5, cherry-picked, set 3 (AID 493073); format: functional
T2 sequence (O75030 whole entry): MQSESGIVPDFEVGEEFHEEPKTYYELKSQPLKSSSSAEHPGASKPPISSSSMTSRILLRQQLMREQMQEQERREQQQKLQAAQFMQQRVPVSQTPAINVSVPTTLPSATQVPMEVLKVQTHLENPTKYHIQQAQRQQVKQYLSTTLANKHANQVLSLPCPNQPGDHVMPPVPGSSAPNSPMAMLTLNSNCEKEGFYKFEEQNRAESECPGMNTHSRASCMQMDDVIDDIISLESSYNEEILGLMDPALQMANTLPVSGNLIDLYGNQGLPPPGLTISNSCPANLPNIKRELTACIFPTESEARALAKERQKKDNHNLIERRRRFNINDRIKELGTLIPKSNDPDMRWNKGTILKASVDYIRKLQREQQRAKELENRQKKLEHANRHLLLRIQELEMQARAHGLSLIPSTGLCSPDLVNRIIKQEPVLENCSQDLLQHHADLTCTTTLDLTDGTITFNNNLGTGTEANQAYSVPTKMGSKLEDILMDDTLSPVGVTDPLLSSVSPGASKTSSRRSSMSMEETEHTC

[4] = biological target: Dual specificity tyrosine-phosphorylation-regulated kinase 1A (Rattus norvegicus, UniProt Q63470); format: biochemical, Homo sapiens
[5] = biological target: T3, Endoribonuclease toxin MazF (Escherichia coli K-12, UniProt P0AE70); test: MazF toxin RNase activators, dose response, biochemical, fluorescence, single-stranded RNA substrate, uHTS hits (AID 588481); format: functional
T3 sequence (P0AE70 whole entry): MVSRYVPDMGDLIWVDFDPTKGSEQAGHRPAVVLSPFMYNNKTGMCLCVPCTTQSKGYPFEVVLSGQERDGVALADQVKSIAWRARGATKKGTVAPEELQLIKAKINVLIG

[6] = biological target: T3, Endoribonuclease toxin MazF; test: fluorescent RNA oligo signal without MazF, dose response, counter-screen for MazEF activator project, biochemical, fluorescence, single-stranded RNase substrate (AID 588502); format: functional
[7] = biological target: T4, Corticotropin-releasing factor receptor 2/Corticotropin-releasing factor-binding protein (Homo sapiens, UniProt P24387+Q13324); test: activators of CRF receptor 2 with binding protein – uHTS hits, confirmation (AID 602473); format: functional; conditions: read-out: EC50_Mean
T4 sequence (Q13324 whole entry): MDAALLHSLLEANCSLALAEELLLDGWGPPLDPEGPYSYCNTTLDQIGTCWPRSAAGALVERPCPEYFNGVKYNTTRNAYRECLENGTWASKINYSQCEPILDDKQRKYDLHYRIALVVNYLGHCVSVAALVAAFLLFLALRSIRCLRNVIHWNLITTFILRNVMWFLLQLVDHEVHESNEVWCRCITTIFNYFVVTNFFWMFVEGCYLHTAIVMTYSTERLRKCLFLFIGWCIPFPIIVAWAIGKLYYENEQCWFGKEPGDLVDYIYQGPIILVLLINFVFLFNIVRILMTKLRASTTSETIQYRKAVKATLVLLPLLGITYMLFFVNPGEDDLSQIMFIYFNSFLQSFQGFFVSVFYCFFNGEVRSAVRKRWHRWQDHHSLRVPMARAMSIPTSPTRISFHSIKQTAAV
T4 sequence (P24387 whole entry): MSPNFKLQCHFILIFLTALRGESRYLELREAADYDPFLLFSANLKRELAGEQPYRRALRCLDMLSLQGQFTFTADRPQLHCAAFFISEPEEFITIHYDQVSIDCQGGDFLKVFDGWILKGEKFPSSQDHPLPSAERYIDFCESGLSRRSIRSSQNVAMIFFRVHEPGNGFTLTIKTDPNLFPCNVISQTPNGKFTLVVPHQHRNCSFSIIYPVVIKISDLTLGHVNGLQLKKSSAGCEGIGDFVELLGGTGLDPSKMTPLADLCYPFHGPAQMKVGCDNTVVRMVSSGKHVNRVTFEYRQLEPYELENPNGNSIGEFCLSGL

[8] = biological target: Ras and Rab interactor 1/Tyrosine-protein kinase ABL1 (Homo sapiens, UniProt P00519+Q13671); format: functional;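 also: biochemical TR-FRET dose-response test measuring inhibition of binding between Rin1 and Abl proteins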
[9] = microbe, parasite or virus in culture; format: functional; conditions: Mycobacterium tuberculosis
Fatty acid synthase [10] = biological target: T5, Fatty acid synthase (Homo sapiens, UniProt P49327); test: FAS thioesterase domain inhibitors, dose response, biochemical, endpoint fluorescence intensity, uHTS hits (AID 624327); format: functional;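 also: fluorescence from hydrolysis of an O-methyl fluorescein acyl ester substrate by the enzyme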
Fatty acid synthase [11] = biological target: T5, Fatty acid synthase; test: FAS thioesterase domain inhibitors, dose response, biochemical, kinetic fluorescence intensity (AID 624326); format: functional;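 also: rate of fluorescence rise from hydrolysis of a fluorogenic O-methyl fluorescein ester substrate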
[12] = biological target: T6, Calpain-2 catalytic subunit (Sus scrofa, UniProt P43367); test: pig calpain II inhibitor potency, dose response, biochemical, fluorogenic peptide substrate (AID 1420); format: functional
T6 sequence (P43367 whole entry): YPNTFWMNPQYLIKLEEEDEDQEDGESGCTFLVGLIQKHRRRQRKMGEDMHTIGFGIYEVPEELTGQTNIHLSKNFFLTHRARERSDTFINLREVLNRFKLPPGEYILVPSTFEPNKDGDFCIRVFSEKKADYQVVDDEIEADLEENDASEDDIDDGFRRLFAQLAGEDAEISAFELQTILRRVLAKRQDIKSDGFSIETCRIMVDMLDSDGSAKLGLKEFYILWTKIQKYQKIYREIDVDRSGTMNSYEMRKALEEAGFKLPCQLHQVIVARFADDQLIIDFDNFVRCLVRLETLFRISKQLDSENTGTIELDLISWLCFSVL

[13] = inhibitors of HIV Env-driven cell fusion, dose response, cherry-pick (AID 652057); format: functional, cell-based
[14] = ZM109 Env clade C HIV-1 fusion inhibitors, dose response, HeLa effector, CEM target cells, luciferase, cherry-pick (AID 652058); format: functional, cell-based
[15] = off-target signal loss in HeLa-CEM21 co-culture – HeLa F-luc CTL cells, cherry-picked, counter-screen for HIV-1 Env fusion inhibitor project, dose response (AID 652040); format: functional, cell-based;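 also: potency for signal decrease marking cytotoxic or nonspecific inhibition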
[16] = inhibitors of clade B AD8 Env fusion, dose response, cell-based, cherry-pick (AID 652062); format: functional;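 also: luciferase signal from cell-cell fusion driven by HIV-1 clade B AD8 Env; potency is for inhibitors of fusion seen as a drop in luminescence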
Cytochrome P450 2D6 = Cytochrome P450 2D6 (Homo sapiens, UniProt P10635);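 also: CYP2D6 member of a cytochrome P450 panel assay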
Cytochrome P450 2C9 = Cytochrome P450 2C9 (Homo sapiens, UniProt P11712)
Sequence of Cytochrome P450 2C9 (P11712 whole entry): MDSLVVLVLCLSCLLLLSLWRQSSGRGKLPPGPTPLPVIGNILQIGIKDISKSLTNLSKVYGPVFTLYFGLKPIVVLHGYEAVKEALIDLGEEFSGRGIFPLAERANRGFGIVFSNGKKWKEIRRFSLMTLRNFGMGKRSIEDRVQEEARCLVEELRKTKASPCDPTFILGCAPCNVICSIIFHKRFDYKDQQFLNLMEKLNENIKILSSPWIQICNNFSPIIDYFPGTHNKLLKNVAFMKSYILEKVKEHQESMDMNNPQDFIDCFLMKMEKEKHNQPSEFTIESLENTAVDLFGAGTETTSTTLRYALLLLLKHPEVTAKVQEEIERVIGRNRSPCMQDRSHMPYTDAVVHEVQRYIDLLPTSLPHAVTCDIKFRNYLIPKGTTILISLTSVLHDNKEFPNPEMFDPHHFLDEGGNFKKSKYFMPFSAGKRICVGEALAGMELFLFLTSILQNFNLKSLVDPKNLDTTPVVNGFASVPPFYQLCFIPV

T5 sequence (P49327 whole entry, the tested form may be a part): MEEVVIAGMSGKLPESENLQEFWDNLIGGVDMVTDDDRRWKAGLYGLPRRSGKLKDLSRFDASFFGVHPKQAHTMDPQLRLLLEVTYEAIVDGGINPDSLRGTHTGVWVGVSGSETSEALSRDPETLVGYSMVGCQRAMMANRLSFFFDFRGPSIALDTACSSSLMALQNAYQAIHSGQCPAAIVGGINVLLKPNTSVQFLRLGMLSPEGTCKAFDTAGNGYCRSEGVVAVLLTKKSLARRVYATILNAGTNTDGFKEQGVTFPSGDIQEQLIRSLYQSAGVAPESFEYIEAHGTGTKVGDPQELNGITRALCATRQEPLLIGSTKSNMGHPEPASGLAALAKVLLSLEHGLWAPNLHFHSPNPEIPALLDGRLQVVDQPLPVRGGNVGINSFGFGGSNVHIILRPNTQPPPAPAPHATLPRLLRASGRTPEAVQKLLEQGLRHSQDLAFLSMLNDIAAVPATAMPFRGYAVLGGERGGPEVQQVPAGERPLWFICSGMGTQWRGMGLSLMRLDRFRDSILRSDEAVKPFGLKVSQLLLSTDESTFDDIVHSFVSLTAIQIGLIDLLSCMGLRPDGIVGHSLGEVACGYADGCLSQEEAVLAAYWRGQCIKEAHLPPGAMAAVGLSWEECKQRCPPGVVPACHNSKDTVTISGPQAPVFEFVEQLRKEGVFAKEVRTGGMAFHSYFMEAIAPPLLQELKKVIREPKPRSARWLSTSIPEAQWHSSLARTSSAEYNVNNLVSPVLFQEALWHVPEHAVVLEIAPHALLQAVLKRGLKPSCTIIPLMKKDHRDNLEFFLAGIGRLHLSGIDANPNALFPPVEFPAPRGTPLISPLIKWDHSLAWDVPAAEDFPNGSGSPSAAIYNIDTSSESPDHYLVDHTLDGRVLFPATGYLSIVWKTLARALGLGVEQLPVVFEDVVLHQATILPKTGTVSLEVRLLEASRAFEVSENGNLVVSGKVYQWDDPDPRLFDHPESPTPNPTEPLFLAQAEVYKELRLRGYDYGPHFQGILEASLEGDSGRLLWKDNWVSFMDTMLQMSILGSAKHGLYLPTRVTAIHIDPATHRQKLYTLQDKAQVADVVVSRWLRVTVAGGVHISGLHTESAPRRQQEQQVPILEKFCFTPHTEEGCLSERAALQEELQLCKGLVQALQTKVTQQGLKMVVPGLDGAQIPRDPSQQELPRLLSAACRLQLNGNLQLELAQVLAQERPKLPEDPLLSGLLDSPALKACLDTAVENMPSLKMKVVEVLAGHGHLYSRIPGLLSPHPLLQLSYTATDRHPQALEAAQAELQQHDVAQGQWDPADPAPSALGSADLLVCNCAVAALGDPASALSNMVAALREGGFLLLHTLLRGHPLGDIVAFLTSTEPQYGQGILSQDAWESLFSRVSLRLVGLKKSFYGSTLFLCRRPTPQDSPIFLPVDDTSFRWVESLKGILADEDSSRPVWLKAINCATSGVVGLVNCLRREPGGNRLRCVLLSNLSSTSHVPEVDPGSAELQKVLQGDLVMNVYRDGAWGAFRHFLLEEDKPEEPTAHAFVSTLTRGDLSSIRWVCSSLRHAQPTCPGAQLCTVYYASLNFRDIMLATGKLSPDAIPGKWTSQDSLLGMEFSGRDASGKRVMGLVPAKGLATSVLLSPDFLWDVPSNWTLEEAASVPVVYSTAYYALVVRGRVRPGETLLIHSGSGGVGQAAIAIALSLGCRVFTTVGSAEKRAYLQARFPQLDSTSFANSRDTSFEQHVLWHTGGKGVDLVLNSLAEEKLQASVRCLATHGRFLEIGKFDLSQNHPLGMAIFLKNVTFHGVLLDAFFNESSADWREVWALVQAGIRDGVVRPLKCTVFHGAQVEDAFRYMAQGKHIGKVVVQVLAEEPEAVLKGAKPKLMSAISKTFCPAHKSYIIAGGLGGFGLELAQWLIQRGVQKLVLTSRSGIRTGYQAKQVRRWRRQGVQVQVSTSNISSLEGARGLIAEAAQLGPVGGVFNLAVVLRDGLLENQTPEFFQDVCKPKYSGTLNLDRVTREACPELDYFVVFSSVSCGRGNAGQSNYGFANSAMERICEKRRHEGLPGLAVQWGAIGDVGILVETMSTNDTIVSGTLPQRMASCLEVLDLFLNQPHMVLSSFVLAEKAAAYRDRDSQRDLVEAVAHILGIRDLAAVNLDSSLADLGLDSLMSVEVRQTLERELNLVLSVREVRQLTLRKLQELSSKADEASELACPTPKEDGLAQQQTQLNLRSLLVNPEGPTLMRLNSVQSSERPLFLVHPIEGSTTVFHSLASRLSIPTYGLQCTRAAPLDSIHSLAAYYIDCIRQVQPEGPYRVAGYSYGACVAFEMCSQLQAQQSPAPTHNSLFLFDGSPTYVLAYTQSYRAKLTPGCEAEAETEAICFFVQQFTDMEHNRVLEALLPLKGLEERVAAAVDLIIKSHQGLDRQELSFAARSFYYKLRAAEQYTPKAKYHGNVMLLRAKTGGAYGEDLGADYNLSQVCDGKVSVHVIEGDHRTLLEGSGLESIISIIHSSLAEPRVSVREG
Sequence of Ras and Rab interactor 1/Tyrosine-protein kinase ABL1 (P00519 whole entry): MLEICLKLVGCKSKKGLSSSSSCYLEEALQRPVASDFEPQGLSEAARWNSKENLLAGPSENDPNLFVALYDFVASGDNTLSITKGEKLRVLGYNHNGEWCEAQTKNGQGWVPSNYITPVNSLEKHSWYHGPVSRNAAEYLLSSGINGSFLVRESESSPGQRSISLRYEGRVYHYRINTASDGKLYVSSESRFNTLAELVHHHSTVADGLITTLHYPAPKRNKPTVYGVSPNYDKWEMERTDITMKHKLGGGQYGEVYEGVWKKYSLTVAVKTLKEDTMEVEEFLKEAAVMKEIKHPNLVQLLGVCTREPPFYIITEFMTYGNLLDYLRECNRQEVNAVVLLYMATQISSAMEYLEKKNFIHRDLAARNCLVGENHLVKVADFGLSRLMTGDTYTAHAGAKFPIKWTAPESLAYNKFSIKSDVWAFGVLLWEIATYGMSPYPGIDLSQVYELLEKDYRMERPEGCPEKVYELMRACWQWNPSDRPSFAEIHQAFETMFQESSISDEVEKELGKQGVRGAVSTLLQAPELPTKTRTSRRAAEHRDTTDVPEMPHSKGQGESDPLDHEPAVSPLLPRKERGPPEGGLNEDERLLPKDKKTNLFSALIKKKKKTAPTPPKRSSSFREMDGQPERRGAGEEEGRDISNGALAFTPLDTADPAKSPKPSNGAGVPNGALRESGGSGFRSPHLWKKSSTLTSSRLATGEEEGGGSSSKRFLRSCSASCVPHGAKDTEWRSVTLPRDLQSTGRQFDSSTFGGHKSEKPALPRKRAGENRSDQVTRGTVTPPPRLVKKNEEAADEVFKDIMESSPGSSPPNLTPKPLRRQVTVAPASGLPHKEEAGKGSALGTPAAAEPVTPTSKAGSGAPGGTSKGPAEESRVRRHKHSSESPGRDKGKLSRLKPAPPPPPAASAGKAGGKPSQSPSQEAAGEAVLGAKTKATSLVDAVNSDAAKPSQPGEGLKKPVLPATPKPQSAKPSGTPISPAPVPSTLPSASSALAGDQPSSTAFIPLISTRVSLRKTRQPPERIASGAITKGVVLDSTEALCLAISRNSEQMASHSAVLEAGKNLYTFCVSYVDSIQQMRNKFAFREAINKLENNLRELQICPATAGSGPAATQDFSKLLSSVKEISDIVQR
Sequence of Ras and Rab interactor 1/Tyrosine-protein kinase ABL1 (Q13671 whole entry): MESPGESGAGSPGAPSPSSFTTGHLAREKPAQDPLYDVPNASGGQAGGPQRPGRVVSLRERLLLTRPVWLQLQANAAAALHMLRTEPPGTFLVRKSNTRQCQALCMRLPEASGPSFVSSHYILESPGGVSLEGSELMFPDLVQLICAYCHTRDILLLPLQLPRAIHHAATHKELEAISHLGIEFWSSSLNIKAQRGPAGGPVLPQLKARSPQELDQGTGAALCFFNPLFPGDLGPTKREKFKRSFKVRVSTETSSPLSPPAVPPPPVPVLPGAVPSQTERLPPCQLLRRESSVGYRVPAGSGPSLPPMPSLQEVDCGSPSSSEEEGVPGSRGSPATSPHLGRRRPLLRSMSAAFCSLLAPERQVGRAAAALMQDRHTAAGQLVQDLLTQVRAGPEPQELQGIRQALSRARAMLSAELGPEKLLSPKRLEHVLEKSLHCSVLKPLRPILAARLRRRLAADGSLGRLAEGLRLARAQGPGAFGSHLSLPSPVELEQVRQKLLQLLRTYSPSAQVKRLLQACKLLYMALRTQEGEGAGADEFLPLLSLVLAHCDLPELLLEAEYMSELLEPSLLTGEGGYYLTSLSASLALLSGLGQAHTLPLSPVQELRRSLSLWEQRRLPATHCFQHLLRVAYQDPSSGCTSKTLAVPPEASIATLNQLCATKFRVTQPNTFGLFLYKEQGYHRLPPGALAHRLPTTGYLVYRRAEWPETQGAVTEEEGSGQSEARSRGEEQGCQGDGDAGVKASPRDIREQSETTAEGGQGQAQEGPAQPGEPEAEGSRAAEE

Cc1ccc(-c2cnc(NCc3cc4c(cc3[N+](=O)[O-])OCO4)n2C)cc1C
CC50 [1]: 100 µM (active) | IC50 [2]: 77.6 µM (active)

CCOC(=O)CSC1=NC(=O)/C(=C/c2ccc(OC)cc2)S1
AC50 [3]: 3.98 µM (active) | AC50 [4]: 0.395 µM (active)

CCOC(=O)/C(=N\Nc1ccc(C(C)=O)cc1)c1csc(Nc2ccccc2)n1
EC50 [5]: > 99 µM (inactive) | EC50 [6]: 38.1 µM (inactive) | EC50 [7]: 18.3 µM (active)

C[C@@H]1CCCCO[C@@H](CN(C)S(=O)(=O)c2cccs2)[C@@H](C)CN([C@H](C)CO)C(=O)c2cc(NS(=O)(=O)c3ccccc3)ccc2O1
IC50 [8]: 1.27 µM (active)

COc1cc(/C=N/N(C)c2ccccc2)cc(Cl)c1O
CC50 [9]: > 40 µM (active) | IC50 (Fatty acid synthase [10]): 4.5 µM (active) | CC50 [1]: 100 µM (active) | IC50 [2]: 38.2 µM (active) | IC50 (Fatty acid synthase [11]): 5.46 µM (active)

CCC(C(=O)c1ccccc1)N(C(=O)c1ccccc1Cl)N1C(=O)C2C3C=CC(C3)C2C1=O (stereo not given)
IC50 [12]: 24.3 µM (not active) | AC50 [13]: 4.55 µM (active) | AC50 [14]: 6.01 µM (active) | AC50 [15]: 7.95 µM (active) | AC50 [16]: 27.5 µM (active) | AC50 (Cytochrome P450 2D6): 7.08 µM (inconclusive) | AC50 (Cytochrome P450 2C9): 10 µM (inconclusive)
